Assay results: paper PMC10974795 (2024)

System: Apt-WO-06 (AWO-06) (DNA, aptamer) GTGAGTTTACATGGGGTCCTATAGGCGAACAATCG
Assay: graphene oxide fluorescence recovery
Conditions: buffer composition not stated; aptamer 0.5-30 nM titrated; displaced from graphene oxide; apparent

Kd: 28.16 nM
SMILES: CC1COc2c(N3CCN(C)CC3)c(F)cc3c(=O)c(C(=O)O)cn1c23 (stereo not shown)
